Measured values as given in patent US10517842B2, “Methods of modulating miRNA levels and compositions for use in the same” (Los Angeles Biomedical Research Institute at Harbor-UCLA …, priority 2017, dated 2019).

Experiments:
leiomyoma xenografts = assay: Leiomyoma xenograft mouse model (LSMC under the kidney capsule); format: in vivo, CB-17 SCID/beige mice; settings: Tranilast 50 mg/kg/day i.p. daily for 3 weeks, mice
Description: We injected primary leiomyoma cells under the kidney capsule of CB-17 SCID/beige mice using a 27 g needle as previously reported (Ishikawa et al., “Progesterone is essential for maintenance and growth of uterine leiomyoma,” Endocrinology (2010) 151: 2433-2442; Ono et al, “Paracrine activation of WNT/beta-catenin pathway in uterine leiomyoma stem cells promotes tumor growth,” Proceedings of the National Academy of Sciences of the United States of America (2013) 110: 17053-17058). After two weeks we excised the xenograft, fixed the tissue, embedded it in paraffin and obtained 5 μm sections for staining. […] This animal model is used to evaluate the efficacy of Tranilast on tumor initiation, progression, histology, and expression of miR-200c and miR-29c and their respective target genes.
Freshly isolated LSMC are injected under the kidney capsule of female ovariectomized CB-17 SCID/beige mice implanted with pellet containing estradiol (0.05 mg/90 d release) and progesterone (25 mg/60 d release) as previously reported (Ishikawa et al., “Progesterone is essential for maintenance and growth of uterine leiomyoma,” Endocrinology (2010) 151: 2433-2442; Ono et al, “Paracrine activation of WNT/beta-catenin pathway in uterine leiomyoma stem cells promotes tumor growth,” Proceedings of the National Academy of Sciences of the United States of America (2013) 110: 17053-17058). For injections of leiomyoma cells, freshly isolated cells from hysterectomy specimens are suspended in rat-tail collagen (type I) solution (BD Biosciences) at 1×10^6 cells/10 μl and grafted onto kidney capsule.
To determine the effects of Tranilast on tumor initiation, immediately after subcapsular injection of cells mice (10 per group) will be treated i.p. daily for 3 weeks with vehicle (1% DMSO) or Tranilast (50 mg/kg/day) (Kim et al., “Effects of tranilast and pentoxifylline in a mouse model of chronic asthma using house dust mite antigen,” The Journal of asthma: official journal of the Association for the Care of Asthma (2009) 46: 884-894) at which point the animals are sacrificed and tumors excised, weighed and measured and subjected for further analyses detailed below.
To determine tumor progression in an additional four groups (10/group), LMSC cells are injected under the kidney capsule and tumors are allowed to develop for five weeks. Mice are then injected i.p. daily for 3 more weeks with vehicle or Tranilast (50 mg/kg/day) (Kim et al., “Effects of tranilast and pentoxifylline in a mouse model of chronic asthma using house dust mite antigen,” The Journal of asthma: official journal of the Association for the Care of Asthma (2009) 46: 884-894) at which time the animals are sacrificed and tumors excised, weighed, measured and subjected for further analysis.
For tumor analysis, portions of tumors are allocated for RNA and protein extraction, and the remainder fixed in 4% neutral-buffered formalin and embedded in paraffin (FFPE) for histologic analysis. To assess the rate of collagen deposition, 5 μm cut paraffin sections are subjected to histologic analysis and stained with Masson's Trichrome and Sirius Red (Sigma-Aldrich), and images are analyzed by Image-Pro Plus software (Media Cybernetics) as described in detail in our prior publications (Khorram et al., “Nutrient restriction in utero induces remodeling of the vascular extracellular matrix in rat offspring,” Reproductive sciences (2007) 14: 73-80; Khorram et al., “In utero undernutrition in rats induces increased vascular smooth muscle content in the offspring, American journal of obstetrics and gynecology (2007) 196: 486.e481-488). For Immunohistochemistry, the sections are de-paraffinized in xylene, and heated in 0.01 M citrate buffer for 15 min in a microwave oven. Slides are then incubated in methanol containing 0.3% hydrogen peroxide. Slides are incubated with primary antibody or control serum, washed, and followed by application of secondary antibody. The chromogen used is diaminobenzidine (DAKO). […]

3′UTR of COL3A1 = assay: 3′UTR luciferase reporter assay in LSMC; format: cell-based, human; settings: Tranilast 200 μM vs DMSO set as 1, 48 hrs before and 48 hrs after transfection, LSMC; P<0.05
Protocol: LSMC were seeded at 3.5×10^4 cells/well in 6-well plates and at sub-confluence were treated with Tranilast (200 μM) or DMSO as control for 48 hrs. Tranilast and DMSO-treated cells were then transfected with luciferase reporter plasmids (1 μg/well) containing 3′ UTR sequences for COL3A1 or CDK2 (GeneCopoeia, Inc., Rockville, Md.) using PureFection transfection reagent (System Biosciences, Inc., Palo Alto, Calif.). After 48 hrs of transfection Firefly and Renilla luciferase activities were measured using the Dual-Luciferase Reporter Assay System (Promega). Firefly luciferase activity was normalized to Renilla luciferase activity. The level of induction was reported as mean±SEM of three experiments and compared with a ratio in cells treated with DMSO independently set as 1.
FIG. 10A: The relative luciferase activity in LSMC treated with Tranilast (200 μM) or DMSO as control for 48 hrs prior to transfection with Renilla and Firefly luciferase reporter plasmids carrying a 3′UTR fragment of COL3A1, CDK2 or IL8 and incubated with Tranilast (200 μM) or DMSO containing medium after transfection for another 48 hrs. The relative luciferase activity is presented as the ratio of Firefly:Renilla as compared to DMSO which was independently set as 1. The results are presented as mean±SEM of at least three sets of independent experiments using LSMC isolated from 3 patients. FIG. 10B: Protein expression of COL3A1 and CDK2 was determined after transfection of anti-miR scrambled oligonucleotides (aNC) or anti-miR-29c oligonucleotides (a29c) in LSMC for 72 hrs with DMSO or Tranilast (200 μM) treatment for the last 48 hrs. GAPDH was used as loading control. The result is one representative of at least three sets of independent experiments using LSMC isolated from 3 patients. FIG. 10C: The bar graph presented the relative band densities as mean±SEM of at least three independent experiments. Inhibition of protein expression by Tranilast treatment was calculated relative to changes in corresponding DMSO controls in cells transfected with aNC or anti-miR-29c.

COc1ccc(C=CC(=O)Nc2ccccc2C(=O)O)cc1OC [Tranilast, 2-[[3-(3,4-dimethoxyphenyl)-1-oxo-2-propenyl]amino]benzoic acid]
NF-kB signaling in xenograft (leiomyoma xenografts): inhibition | cell proliferation (Ki-67 and PCNA labeling index) (leiomyoma xenografts): reduce | leiomyoma size (leiomyoma xenografts): shrinkage | methytransferases (DNMT1) in xenograft (leiomyoma xenografts): inhibition | miR-29c expression in xenograft (leiomyoma xenografts): up-regulate | miR-200c expression in xenograft (leiomyoma xenografts): up-regulate | rate of collagen deposition (Sirius Red staining) (leiomyoma xenografts): reduce | 3′UTR activity of COL3A1 (relative luciferase activity, Firefly:Renilla) (3′UTR of COL3A1): suppressed
